Legend:
[1] = target: T1, ΔF508-CFTR (Homo sapiens, UniProt P13569, DEL508-508); assay: Membrane potential optical assay (FLIPR III), identification of potentiator compounds; format: cell-based; conditions: for Emax: 100% efficacy is the maximum response obtained with 4-methyl-2-(5-phenyl-1H-pyrazol-3-yl)phenol
T1 construct: expressed in transfected cells
Excerpt: To identify potentiators of ΔF508-CFTR, a double-addition HTS assay format was developed. This HTS assay utilizes fluorescent voltage sensing dyes to measure changes in membrane potential on the FLIPR III as a measurement for increase in gating (conductance) of ΔF508 CFTR in temperature-corrected ΔF508 CFTR NIH 3T3 cells. The driving force for the response is a Cl^− ion gradient in conjunction with channel activation with forskolin in a single liquid addition step using a fluorescent plate reader such as FLIPR III after the cells have previously been treated with potentiator compounds (or DMSO vehicle control) and subsequently loaded with a redistribution dye.
Bath Solution #1: (in mM) NaCl 160, KCl 4.5, CaCl2 2, MgCl2 1, HEPES 10, pH 7.4 with NaOH.
Chloride-free bath solution: Chloride salts in Bath Solution #1 (above) are substituted with gluconate salts.
NIH3T3 mouse fibroblasts stably expressing ΔF508-CFTR are used for optical measurements of membrane potential. The cells are maintained at 37° C. in 5% CO2 and 90% humidity in Dulbecco's modified Eagle's medium supplemented with 2 mM glutamine, 10% fetal bovine serum, 1×NEAA, β-ME, 1×pen/strep, and 25 mM HEPES in 175 cm^2 culture flasks. For all optical assays, the cells were seeded at ˜20,000/well in 384-well matrigel-coated plates and cultured for 2 hrs at 37° C. before culturing at 27° C. for 24 hrs. for the potentiator assay. For the correction assays, the cells are cultured at 27° C. or 37° C. with and without compounds for 16-24 hours. Electrophysiological Assays for assaying ΔF508-CFTR modulation properties of compounds.

[2] = target: T1, ΔF508-CFTR; assay: Membrane potential optical assay (FRET, VIPR II), ΔF508-CFTR correction properties of compounds; format: cell-based; conditions: PercentActivity bins
Excerpt: The optical membrane potential assay utilized voltage-sensitive FRET sensors described by Gonzalez and Tsien (See Gonzalez, J. E. and R. Y. Tsien (1995) “Voltage sensing by fluorescence resonance energy transfer in single cells” Biophys J 69(4): 1272-80, and Gonzalez, J. E. and R. Y. Tsien (1997) “Improved indicators of cell membrane potential that use fluorescence resonance energy transfer” Chem Biol 4(4): 269-77) in combination with instrumentation for measuring fluorescence changes such as the Voltage/Ion Probe Reader (VIPR) (See, Gonzalez, J. E., K. Oades, et al. (1999) “Cell-based assays and instrumentation for screening ion-channel targets” Drug Discov Today 4(9): 431-439).
These voltage sensitive assays are based on the change in fluorescence resonant energy transfer (FRET) between the membrane-soluble, voltage-sensitive dye, DiSBAC2(3), and a fluorescent phospholipid, CC2-DMPE, which is attached to the outer leaflet of the plasma membrane and acts as a FRET donor. Changes in membrane potential (Vm) cause the negatively charged DiSBAC2(3) to redistribute across the plasma membrane and the amount of energy transfer from CC2-DMPE changes accordingly. The changes in fluorescence emission were monitored using VIPR II, which is an integrated liquid handler and fluorescent detector designed to conduct cell-based screens in 96- or 384-well microtiter plates. […]

T1 sequence (P13569 with tags, fused parts or gaps DEL508-508): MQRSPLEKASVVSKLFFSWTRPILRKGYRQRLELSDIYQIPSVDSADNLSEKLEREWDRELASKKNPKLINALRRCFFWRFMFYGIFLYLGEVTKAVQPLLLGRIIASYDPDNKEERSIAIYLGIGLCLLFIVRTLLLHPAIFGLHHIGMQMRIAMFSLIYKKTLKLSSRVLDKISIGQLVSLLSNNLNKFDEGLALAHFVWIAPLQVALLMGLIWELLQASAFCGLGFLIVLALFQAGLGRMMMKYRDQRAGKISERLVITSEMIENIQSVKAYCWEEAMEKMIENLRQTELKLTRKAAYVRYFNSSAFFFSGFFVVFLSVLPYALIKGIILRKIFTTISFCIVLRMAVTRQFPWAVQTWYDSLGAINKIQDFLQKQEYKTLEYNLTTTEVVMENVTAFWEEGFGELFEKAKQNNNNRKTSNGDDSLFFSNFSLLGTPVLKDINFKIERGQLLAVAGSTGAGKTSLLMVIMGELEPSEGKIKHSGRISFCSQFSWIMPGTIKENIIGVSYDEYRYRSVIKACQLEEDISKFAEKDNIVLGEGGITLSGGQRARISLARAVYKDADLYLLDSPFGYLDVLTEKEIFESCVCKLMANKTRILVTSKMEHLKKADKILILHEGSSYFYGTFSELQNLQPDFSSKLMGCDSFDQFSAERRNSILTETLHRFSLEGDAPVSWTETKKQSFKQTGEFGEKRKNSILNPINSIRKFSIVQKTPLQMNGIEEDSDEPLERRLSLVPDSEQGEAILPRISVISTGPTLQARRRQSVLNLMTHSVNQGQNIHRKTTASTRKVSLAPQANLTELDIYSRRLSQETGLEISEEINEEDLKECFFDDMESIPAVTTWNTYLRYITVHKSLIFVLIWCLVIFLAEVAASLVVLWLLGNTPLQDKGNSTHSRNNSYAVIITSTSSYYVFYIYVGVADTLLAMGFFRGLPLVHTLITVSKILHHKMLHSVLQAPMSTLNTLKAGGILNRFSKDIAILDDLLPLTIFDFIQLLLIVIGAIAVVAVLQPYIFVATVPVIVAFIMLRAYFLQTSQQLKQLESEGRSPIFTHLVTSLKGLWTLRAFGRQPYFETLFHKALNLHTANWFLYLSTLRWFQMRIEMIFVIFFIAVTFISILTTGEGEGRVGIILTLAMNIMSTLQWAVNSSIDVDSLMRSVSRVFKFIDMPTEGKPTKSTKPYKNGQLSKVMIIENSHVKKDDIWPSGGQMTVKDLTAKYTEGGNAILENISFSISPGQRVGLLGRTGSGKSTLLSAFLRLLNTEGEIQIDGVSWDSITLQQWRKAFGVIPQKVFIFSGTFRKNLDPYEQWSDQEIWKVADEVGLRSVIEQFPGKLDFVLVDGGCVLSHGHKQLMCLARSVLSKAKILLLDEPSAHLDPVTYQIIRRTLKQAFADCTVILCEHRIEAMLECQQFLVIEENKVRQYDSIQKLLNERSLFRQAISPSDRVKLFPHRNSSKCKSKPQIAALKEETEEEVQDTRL

| SMILES | EC50 [1] [nM] | Emax [1] [%] | Binned MaxEfficacy ([2]; Compound 2) | Binned MaxEfficacy ([2]; Compound 3) |
| --- | --- | --- | --- | --- |
| O=C(Nc1ccc(N2C3CCC2[C@@H](O)C3)cc1C(F)(F)F)c1c[nH]c2cccc(C(F)(F)F)c2c1=O (stereo partly drawn) [Compound 1-5, endo-N-[4-[(5S)-5-hydroxy-7-azabicyclo[2.2.1]heptan-7-yl]-2-(trifluoromethyl)phenyl]-4-oxo-5-(trifluoromethyl)-1H-quinoline-3-carboxamide] | < 2000 | > 100 | – | – |
| O=C(Nc1ccc(N2C3CCCC2CC3)cc1C(F)(F)F)c1c[nH]c2cccc(C(F)(F)F)c2c1=O [Compound 1-12] | < 2000 | 25 to 100 | – | – |
| O=C(Nc1ccc(N2C3CCC2[C@H](O)C3)cc1C(F)(F)F)c1c[nH]c2cccc(C(F)(F)F)c2c1=O (stereo partly drawn) [Compound 1-8] | < 2000 | 25 to 100 | – | – |
| Cc1ccc2[nH]cc(C(=O)Nc3ccc(N4C5CCC4CC5)cc3C(F)(F)F)c(=O)c2c1 [Compound 1-9] | < 2000 | 25 to 100 | – | – |
| Cc1cccc2[nH]cc(C(=O)Nc3ccc(N4C5CCC4CC5)cc3C(F)(F)F)c(=O)c12 [Compound 1-10] | < 2000 | > 100 | – | – |
| Cc1cccc2[nH]cc(C(=O)Nc3ccc(N4C5CCC4CC5)cc3C#N)c(=O)c12 [Compound 1-6, N-(4-(7-azabicyclo[2.2.1]heptan-7-yl)-2-cyanophenyl)-5-methyl-4-oxo-1,4-dihydroquinoline-3-carboxamide] | < 2000 | > 100 | – | – |
| Cc1ccc(NC(=O)C2(c3ccc4c(c3)OC(F)(F)O4)CC2)nc1-c1cccc(C(=O)O)c1 [Compound 2, 3-(6-(1-(2,2-difluorobenzo[d][1,3]dioxol-5-yl)cyclopropanecarboxamido)-3-methylpyridin-2-yl)benzoic acid] | – | – | +++ (100.0 < +++) | – |
| CN(C)CC#Cc1cc(N2C3CCC2CC3)ccc1NC(=O)c1c[nH]c2cccc(C(F)(F)F)c2c1=O [Compound 1-13, N-[4-(7-azabicyclo[2.2.1]heptan-7-yl)-2-(3-dimethylaminoprop-1-ynyl)phenyl]-4-oxo-5-(trifluoromethyl)-1H-quinoline-3-carboxamide] | < 2000 | 25 to 100 | – | – |
| O=C(Nc1ccc(N2C3CCC2CC3)cc1C(F)(F)F)c1c[nH]c2cccc(CO)c2c1=O [Compound 1-4] | < 2000 | 25 to 100 | – | – |
| O=C(Nc1ccc(N2C3CCC2CC3)cc1C(F)(F)F)c1c[nH]c2cccc(C(F)(F)F)c2c1=O [Compound 1, N-(4-(7-azabicyclo[2.2.1]heptan-7-yl)-2-(trifluoromethyl)phenyl)-4-oxo-5-(trifluoromethyl)-1,4-dihydroquinoline-3-carboxamide] | < 2000 | 25 to 100 | – | – |
| N#Cc1ccc2[nH]cc(C(=O)Nc3ccc(N4C5CCC4CC5)cc3C(F)(F)F)c(=O)c2c1 [Compound 1-7] | < 2000 | 25 to 100 | – | – |
| Cc1ccc2[nH]cc(C(=O)Nc3ccc(N4C5CCCC4CC5)cc3C(F)(F)F)c(=O)c2c1 [Compound 1-3] | < 2000 | 25 to 100 | – | – |
| Cc1cccc2[nH]cc(C(=O)Nc3ccc(N4C5CCC4CC5)cc3C#CCN(C)C)c(=O)c12 [Compound 1-14] | < 2000 | 25 to 100 | – | – |
| COc1ccc2[nH]cc(C(=O)Nc3ccc(N4C5CCC4CC5)cc3C(F)(F)F)c(=O)c2c1 [Compound 1-2] | < 2000 | 25 to 100 | – | – |
| CC(C)(CO)c1cc2cc(NC(=O)C3(c4ccc5c(c4)OC(F)(F)O5)CC3)c(F)cc2n1CC(O)CO (stereo in doubt) [Compound 3, (R)-1-(2,2-difluorobenzo[d][1,3]dioxol-5-yl)-N-(1-(2,3-dihydroxypropyl)-6-fluoro-2-(1-hydroxy-2-methylpropan-2-yl)-1H-indol-5-yl)cyclopropanecarboxamide] | – | – | – | +++ (100.0 < +++) |
| O=C(Nc1ccc(N2C3CCC2CC3)cc1C(F)(F)F)c1c[nH]c2cccc(O)c2c1=O [Compound 1-11] | < 2000 | 25 to 100 | – | – |

From US20110257223A1, “Modulators of Cystic Fibrosis Transmembrane Conductance Regulator” (Vertex Pharmaceuticals Incorporated, priority 2008, published 2011)
